Drawing on patent publication US20150087627A1, “COMBINATION OF KINASE INHIBITORS AND USES THEREOF” (Intellikine LLC, priority 2011, published 2015), this text covers IC50 for 39 molecules.

Holding throughout (type): biochemical
For assay [1], the target named is T1, PI3K α (p110α/p85α) (Homo sapiens, UniProt P42336).
T1 construct: purchased Upstate / Millipore Corporation
Nature of the assay: PI 3-Kinase (human) HTRF assay, PI3K α. The settings on record: read-out: PI3K α IC50.

Assay [2] addresses T2, PI3K β (p110β/p85α) (Homo sapiens, UniProt P42338).
T2 construct: purchased Upstate / Millipore Corporation
Nature of the assay: PI 3-Kinase (human) HTRF assay, PI3K β. The settings on record: read-out: PI3K β IC50.

The target in assay [3] is T3, PI3K γ (p110γ) (Homo sapiens, UniProt P48736).
T3 construct: purchased Upstate / Millipore Corporation
T3 sequence (P48736 whole entry): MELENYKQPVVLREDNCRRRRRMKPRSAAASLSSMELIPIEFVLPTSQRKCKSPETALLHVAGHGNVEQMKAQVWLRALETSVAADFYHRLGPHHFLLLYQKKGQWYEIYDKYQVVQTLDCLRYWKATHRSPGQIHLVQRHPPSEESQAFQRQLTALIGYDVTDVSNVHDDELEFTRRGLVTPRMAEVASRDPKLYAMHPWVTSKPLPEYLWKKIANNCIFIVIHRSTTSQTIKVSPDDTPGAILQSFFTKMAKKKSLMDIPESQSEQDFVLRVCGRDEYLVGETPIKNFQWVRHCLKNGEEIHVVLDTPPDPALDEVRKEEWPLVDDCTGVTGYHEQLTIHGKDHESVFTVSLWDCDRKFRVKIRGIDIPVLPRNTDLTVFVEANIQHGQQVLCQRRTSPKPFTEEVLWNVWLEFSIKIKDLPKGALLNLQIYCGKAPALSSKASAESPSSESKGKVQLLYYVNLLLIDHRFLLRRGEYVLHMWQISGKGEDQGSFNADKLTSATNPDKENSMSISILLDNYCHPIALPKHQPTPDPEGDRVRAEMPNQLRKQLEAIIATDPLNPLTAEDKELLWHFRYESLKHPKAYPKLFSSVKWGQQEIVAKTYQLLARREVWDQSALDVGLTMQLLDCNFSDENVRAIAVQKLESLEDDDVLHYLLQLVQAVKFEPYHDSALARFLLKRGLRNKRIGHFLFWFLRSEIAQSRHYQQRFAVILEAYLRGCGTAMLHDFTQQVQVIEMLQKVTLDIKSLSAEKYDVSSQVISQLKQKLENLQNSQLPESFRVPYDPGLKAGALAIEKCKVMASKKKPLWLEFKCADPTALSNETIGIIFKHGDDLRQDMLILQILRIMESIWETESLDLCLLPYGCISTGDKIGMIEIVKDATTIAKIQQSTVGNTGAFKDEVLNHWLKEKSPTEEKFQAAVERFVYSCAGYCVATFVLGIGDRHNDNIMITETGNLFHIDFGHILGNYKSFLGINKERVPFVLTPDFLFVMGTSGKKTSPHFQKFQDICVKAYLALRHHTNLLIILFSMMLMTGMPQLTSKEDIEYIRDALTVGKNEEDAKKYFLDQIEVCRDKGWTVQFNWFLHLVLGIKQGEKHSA
In words: PI 3-Kinase (human) HTRF assay, PI3K γ. Conditions: read-out: PI3K γ IC50.

Assay [4] addresses T4, PI3K δ (Homo sapiens, UniProt O00329).
T4 construct: purchased Upstate / Millipore Corporation
Nature of the assay: PI 3-Kinase (human) HTRF assay, PI3K δ. Conditions: read-out: PI3K δ IC50.

The structures appear in SMILES notation. Where two headings read alike, the source gives them in different places.

T1 sequence (P42336 whole entry): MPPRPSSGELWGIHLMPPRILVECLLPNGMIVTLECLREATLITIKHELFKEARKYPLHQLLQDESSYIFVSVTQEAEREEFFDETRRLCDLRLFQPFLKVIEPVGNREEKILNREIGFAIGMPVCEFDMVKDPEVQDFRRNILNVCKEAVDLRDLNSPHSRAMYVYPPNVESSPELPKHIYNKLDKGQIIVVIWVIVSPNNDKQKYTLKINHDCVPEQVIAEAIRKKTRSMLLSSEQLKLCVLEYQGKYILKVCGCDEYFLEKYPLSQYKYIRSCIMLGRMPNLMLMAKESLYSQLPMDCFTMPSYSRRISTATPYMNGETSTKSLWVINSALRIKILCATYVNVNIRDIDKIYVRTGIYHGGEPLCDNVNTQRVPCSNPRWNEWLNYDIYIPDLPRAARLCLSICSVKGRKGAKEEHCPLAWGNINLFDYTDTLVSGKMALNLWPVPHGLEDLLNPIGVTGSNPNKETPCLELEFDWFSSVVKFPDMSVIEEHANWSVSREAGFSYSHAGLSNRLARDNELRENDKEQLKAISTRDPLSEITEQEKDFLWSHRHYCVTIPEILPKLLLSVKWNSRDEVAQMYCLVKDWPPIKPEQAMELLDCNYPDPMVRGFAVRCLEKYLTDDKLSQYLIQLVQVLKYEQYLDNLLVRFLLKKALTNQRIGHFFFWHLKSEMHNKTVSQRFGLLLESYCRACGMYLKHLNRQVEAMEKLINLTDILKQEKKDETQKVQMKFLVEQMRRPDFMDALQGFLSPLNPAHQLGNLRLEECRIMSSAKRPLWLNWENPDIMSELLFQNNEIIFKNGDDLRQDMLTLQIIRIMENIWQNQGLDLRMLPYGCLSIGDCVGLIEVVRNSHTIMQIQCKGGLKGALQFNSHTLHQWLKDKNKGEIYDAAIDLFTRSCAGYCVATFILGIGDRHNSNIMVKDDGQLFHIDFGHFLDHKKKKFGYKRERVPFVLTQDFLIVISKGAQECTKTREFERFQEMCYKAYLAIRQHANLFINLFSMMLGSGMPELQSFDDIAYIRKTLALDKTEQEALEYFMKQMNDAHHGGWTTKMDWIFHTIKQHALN
T1 sequence (P27986 whole entry partner): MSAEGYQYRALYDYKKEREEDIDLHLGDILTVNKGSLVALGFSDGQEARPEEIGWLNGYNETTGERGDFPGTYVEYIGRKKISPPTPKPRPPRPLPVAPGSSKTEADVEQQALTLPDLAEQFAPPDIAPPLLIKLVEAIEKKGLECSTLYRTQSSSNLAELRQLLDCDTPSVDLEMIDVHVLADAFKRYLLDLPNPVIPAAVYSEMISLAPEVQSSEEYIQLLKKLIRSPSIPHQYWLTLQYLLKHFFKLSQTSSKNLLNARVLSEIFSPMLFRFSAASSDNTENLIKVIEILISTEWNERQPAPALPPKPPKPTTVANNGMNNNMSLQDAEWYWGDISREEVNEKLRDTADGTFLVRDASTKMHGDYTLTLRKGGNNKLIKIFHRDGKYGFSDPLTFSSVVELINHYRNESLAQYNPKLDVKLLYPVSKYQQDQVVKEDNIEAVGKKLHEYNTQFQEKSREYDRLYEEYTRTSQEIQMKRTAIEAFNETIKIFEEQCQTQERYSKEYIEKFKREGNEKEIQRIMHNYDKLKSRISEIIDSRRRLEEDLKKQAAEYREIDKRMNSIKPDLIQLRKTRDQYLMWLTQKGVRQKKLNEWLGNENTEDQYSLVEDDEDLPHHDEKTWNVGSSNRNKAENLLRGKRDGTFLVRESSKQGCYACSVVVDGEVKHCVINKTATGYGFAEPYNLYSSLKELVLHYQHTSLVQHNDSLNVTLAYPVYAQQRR
T4 sequence (O00329 whole entry): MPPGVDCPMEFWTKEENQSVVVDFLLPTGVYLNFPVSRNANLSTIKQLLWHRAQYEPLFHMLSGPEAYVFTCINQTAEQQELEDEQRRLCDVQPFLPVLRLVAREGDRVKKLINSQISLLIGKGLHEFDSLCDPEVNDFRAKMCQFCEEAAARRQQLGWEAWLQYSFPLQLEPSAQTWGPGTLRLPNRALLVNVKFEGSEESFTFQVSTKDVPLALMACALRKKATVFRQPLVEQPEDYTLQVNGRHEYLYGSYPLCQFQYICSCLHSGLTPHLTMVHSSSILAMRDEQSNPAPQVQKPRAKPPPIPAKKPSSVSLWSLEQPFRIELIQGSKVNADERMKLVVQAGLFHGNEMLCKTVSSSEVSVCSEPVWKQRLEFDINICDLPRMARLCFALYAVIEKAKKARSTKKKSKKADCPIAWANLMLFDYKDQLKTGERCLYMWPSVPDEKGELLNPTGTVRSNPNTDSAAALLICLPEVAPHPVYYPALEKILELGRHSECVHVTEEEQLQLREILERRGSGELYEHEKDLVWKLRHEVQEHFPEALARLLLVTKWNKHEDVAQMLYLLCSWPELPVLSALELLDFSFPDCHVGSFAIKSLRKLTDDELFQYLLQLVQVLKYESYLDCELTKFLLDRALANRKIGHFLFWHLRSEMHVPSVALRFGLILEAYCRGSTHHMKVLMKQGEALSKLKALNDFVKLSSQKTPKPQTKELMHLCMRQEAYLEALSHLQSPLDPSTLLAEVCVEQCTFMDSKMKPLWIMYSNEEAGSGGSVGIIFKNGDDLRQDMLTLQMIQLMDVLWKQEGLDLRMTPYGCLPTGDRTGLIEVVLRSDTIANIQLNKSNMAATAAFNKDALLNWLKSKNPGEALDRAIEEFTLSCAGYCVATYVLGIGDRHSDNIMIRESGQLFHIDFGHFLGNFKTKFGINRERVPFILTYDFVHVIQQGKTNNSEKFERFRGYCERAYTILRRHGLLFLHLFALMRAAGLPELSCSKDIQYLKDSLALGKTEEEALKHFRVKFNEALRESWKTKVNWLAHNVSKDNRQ
T4 sequence (P27986 whole entry partner): as the sequence (P27986 whole entry partner) above
T2 sequence (P42338 whole entry): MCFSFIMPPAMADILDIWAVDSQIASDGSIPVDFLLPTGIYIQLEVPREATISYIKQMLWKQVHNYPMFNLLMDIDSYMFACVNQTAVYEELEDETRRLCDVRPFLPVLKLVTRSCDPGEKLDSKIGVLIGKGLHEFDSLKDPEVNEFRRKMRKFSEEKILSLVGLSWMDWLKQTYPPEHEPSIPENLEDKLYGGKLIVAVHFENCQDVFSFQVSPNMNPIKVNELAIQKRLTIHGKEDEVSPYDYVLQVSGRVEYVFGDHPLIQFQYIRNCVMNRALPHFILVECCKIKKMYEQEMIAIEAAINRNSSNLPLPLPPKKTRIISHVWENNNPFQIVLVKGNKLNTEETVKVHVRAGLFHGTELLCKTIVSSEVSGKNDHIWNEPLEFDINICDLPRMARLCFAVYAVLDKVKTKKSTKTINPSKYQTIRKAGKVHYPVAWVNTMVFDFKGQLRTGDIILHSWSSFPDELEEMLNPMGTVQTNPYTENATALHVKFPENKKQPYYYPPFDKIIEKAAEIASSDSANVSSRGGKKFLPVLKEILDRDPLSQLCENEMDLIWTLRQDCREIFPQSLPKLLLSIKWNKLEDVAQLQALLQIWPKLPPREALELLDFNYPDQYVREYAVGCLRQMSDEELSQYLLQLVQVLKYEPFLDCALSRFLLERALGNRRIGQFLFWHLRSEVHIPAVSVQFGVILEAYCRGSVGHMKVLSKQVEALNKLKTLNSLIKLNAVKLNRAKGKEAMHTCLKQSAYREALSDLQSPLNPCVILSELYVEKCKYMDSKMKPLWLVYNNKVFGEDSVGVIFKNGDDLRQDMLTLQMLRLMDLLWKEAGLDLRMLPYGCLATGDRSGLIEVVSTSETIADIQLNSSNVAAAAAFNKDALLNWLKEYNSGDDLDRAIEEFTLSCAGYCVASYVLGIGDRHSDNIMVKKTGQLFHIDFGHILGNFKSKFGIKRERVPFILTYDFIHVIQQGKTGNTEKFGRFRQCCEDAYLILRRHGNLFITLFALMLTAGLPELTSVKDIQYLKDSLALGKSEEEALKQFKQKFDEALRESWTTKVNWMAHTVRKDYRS
T2 sequence (P27986 whole entry partner): as the sequence (P27986 whole entry partner) above

On to `Nc1nc2cc(-c3ccc4ncc(C(=O)N5CCCCC5)n4c3)ccc2o1` [Compound 196], for which the IC50 in assay [1] was less than 1000 nM; in assay [2] it was less than 10 µM; in assay [3] it was less than 10 µM; in assay [4], more than 10 µM.

Take `Cc1nccn1-c1cnc2ccc(-c3ccc4oc(N)nc4c3)cc2n1` [Compound 174]: the IC50 is less than 100 nM in assay [1], less than 1 µM in assay [2], less than 0.1 µM in assay [3] and less than 10 µM in assay [4].

As for `Nc1nc2cc(-c3ccc4ncc(C(=O)N5CC[C@H](F)C5)n4c3)ccc2o1` [Compound 476], the concentration for half-maximal inhibition (IC50) in assay [1] was less than 100 nM; in assay [2] it was more than 10 µM; in assay [3], less than 0.1 µM; in assay [4], more than 10 µM.

For the molecule `CO[C@H]1CCN(C(=O)c2cnc3ccc(-c4ccc5oc(N)nc5c4)cn23)C1` [Compound 463], the concentration for half-maximal inhibition (IC50) in assay [1] was less than 100 nM; in assay [2] it was less than 10 µM; in assay [3], less than 1 µM; in assay [4] it was less than 10 µM.

For the molecule `C[C@@H]1CN(C2CN(c3cnc4ccc(-c5ccc6oc(N)nc6c5)cc4n3)C2)CCN1` [Compound 355], the IC50 in assay [1] is less than 100 nM; in assay [2], less than 10 µM; in assay [3], less than 10 µM; in assay [4] it was less than 1 µM.

For the molecule `Cc1cc(-c2ccc3oc(N)nc3c2)cc2c(-c3ccncc3)cnn12` [Compound 397], the IC50 is less than 100 nM in assay [1], less than 1 µM in assay [2], less than 0.1 µM in assay [3] and less than 1 µM in assay [4].

Turning to `CC(=O)n1nc(N)c2ccc(-c3ccc4oc(N)nc4c3)cc21` [Compound 426], the IC50 is more than 10000 nM in assay [1], more than 10 µM in assay [2], more than 10 µM in assay [3] and more than 10 µM in assay [4].

Consider `Nc1nc2ccc(-c3ccc4ncc(C(=O)N5CCOCC5)n4c3)cc2o1` [Compound 124], for which the IC50 in assay [1] was less than 1000 nM; in assay [2], less than 1 µM; in assay [3], less than 1 µM; in assay [4], more than 10 µM.

On to `Nc1nc2cc(-c3ccc4ncc(C(=O)N5CC(F)C5)n4c3)ccc2o1` [Compound 468], for which the IC50 in assay [1] is less than 100 nM; in assay [2], less than 10 µM; in assay [3], less than 0.1 µM; in assay [4], more than 10 µM.

As to `COc1ccc(-c2ccc3ncc(C(=O)N4CCOCC4)n3c2)cc1NS(C)(=O)=O` [Compound 456], the IC50 was more than 10000 nM in assay [1], more than 10 µM in assay [2], more than 10 µM in assay [3] and more than 10 µM in assay [4].

As for `CN1CCC(c2cnc3ccc(-c4ccc5oc(N)nc5c4)cc3n2)CC1` [Compound 385], the IC50 is less than 100 nM in assay [1], less than 10 µM in assay [2], more than 10 µM in assay [3] and more than 10 µM in assay [4].

Regarding `CN(C)CCn1cnc2ccc(-c3ccc4oc(N)nc4c3)cc2c1=O` [Compound 292], the IC50 in assay [1] is less than 10000 nM; in assay [2] it was more than 10 µM; in assay [3], more than 10 µM; in assay [4], more than 10 µM.

For the molecule `Nc1nc2cc(-c3ccc4ncc(N5CCOCC5)nc4c3)ccc2s1` [Compound 116], the 50% inhibitory concentration (IC50) in assay [1] was less than 100 nM; in assay [2], less than 1 µM; in assay [3] it was less than 1 µM; in assay [4], more than 10 µM.

Take `Nc1nc2cc(-c3ccc4ncc(N5CCN(C(=O)C6(N)CCC6)CC5)nc4c3)ccc2o1` [Compound 286]: the IC50 was less than 100 nM in assay [1], less than 1 µM in assay [2], less than 0.1 µM in assay [3] and less than 1 µM in assay [4].

Regarding `Nc1nc2cc(-c3ccc4ncc(N5CC(N6CCOCC6)C5)nc4c3)cc(F)c2o1` [Compound 361], the IC50 in assay [1] is less than 100 nM; in assay [2], less than 1 µM; in assay [3], less than 1 µM; in assay [4] it was less than 10 µM.

On to `Nc1nc2cccc(-c3ccc4ncc(C(=O)N5CCOCC5)n4c3)c2o1` [Compound 484], for which the half-maximal inhibitory concentration (IC50) in assay [1] is less than 1000 nM; in assay [2], more than 10 µM; in assay [3], more than 10 µM; in assay [4], more than 10 µM.

Consider `CN1CCN(c2nnc3ccc(-c4ccc5nc(N)oc5c4)cn23)CC1` [Compound 542], for which the IC50 in assay [1] is more than 10000 nM; in assay [2], more than 10 µM; in assay [3], more than 10 µM; in assay [4] it was more than 10 µM.

Regarding `Nc1noc2c(-c3ccc4ncc(C(=O)N5CCOCC5)n4c3)cccc12` [Compound 491], the half-maximal inhibitory concentration (IC50) in assay [1] was more than 10000 nM; in assay [2], more than 10 µM; in assay [3], more than 10 µM; in assay [4], more than 10 µM.

For the molecule `Nc1cn2cc(-c3ccc4nc(N)oc4c3)ccc2n1` [Compound 247], the concentration for half-maximal inhibition (IC50) is more than 10000 nM in assay [1], less than 10 µM in assay [2], less than 10 µM in assay [3] and more than 10 µM in assay [4].

For the molecule `CN(C)C1CN(c2cnc3ccc(-c4ccc5oc(N)nc5c4)cc3n2)C1` [Compound 366], the concentration for half-maximal inhibition (IC50) in assay [1] was less than 100 nM; in assay [2], less than 10 µM; in assay [3] it was less than 10 µM; in assay [4], more than 10 µM.

Turning to `CCN1CCN(c2cnc3ccc(-c4ccc5oc(N)nc5c4)cc3n2)C(=O)C1` [Compound 391], the IC50 in assay [1] was less than 10000 nM; in assay [2], more than 10 µM; in assay [3] it was more than 10 µM; in assay [4], more than 10 µM.

Regarding `Nc1nc2cc(-c3ccc4ncc(N5CCN(C(=O)CN6CCCC6)CC5)nc4c3)ccc2o1` [Compound 278], the IC50 in assay [1] is less than 100 nM; in assay [2], less than 1 µM; in assay [3] it was less than 1 µM; in assay [4], less than 10 µM.

Consider `Nc1nc2cc(-c3ccc4nc(N5CCOCC5)cnc4n3)ccc2o1` [Compound 558], for which the concentration for half-maximal inhibition (IC50) was more than 10000 nM in assay [1] (Table 4 (PI3K α inhibitors)), more than 10 µM in assay [2] (Table 4 (PI3K α inhibitors)), more than 10 µM in assay [3] (Table 4 (PI3K α inhibitors)) and more than 10 µM in assay [4] (Table 4 (PI3K α inhibitors)).

As for `C[C@H]1CN(c2cnc3ccc(-c4ccc5nc(N)oc5c4)cc3n2)CCN1` [Compound 309], the IC50 is less than 1000 nM in assay [1], less than 1 µM in assay [2], less than 10 µM in assay [3] and more than 10 µM in assay [4].

Regarding `C[C@H]1CN(c2cnc3ccc(-c4ccc5oc(N)nc5c4)cc3c2)CCN1` [Compound 396], the IC50 is less than 100 nM in assay [1], less than 0.1 µM in assay [2], less than 10 µM in assay [3] and more than 10 µM in assay [4].

In the case of `Nc1nc2cc(-c3ccc4ncc(C(=O)N5CCC(F)CC5)n4c3)ccc2o1` [Compound 503], the IC50 in assay [1] is less than 1000 nM; in assay [2] it was more than 10 µM; in assay [3] it was less than 0.1 µM; in assay [4], more than 10 µM.

Regarding `CC(Oc1nc(-c2ccc3ncc(C(=O)N4CCOCC4)n3c2)cnc1N)C(F)(F)F` (stereo not drawn) [Compound 411], the IC50 was less than 100 nM in assay [1], less than 10 µM in assay [2], less than 1 µM in assay [3] and less than 10 µM in assay [4].

In the case of `O=C(c1cnc2ccc(-c3ccc4c(Nc5ccccc5)noc4c3)cn12)N1CCOCC1` [Compound 509], the half-maximal inhibitory concentration (IC50) in assay [1] was more than 10000 nM; in assay [2] it was more than 10 µM; in assay [3], more than 10 µM; in assay [4], more than 10 µM.

For `O=C(c1cnc2ccc(-c3ccc4c(Nc5ccccc5)nsc4c3)cn12)N1CCOCC1` [Compound 505], the IC50 was more than 10000 nM in assay [1], more than 10 µM in assay [2], more than 10 µM in assay [3] and more than 10 µM in assay [4].

For the molecule `O=C(c1cnc2ccc(-c3cnc4cn[nH]c4c3)cn12)N1CCOCC1` [Compound 535], the 50% inhibitory concentration (IC50) is less than 10000 nM in assay [1], more than 10 µM in assay [2], more than 10 µM in assay [3] and more than 10 µM in assay [4].

As to `Nc1nc2cc(-c3ccc4ncc(C(=O)N5CC(F)(F)C5)n4c3)ccc2o1` [Compound 473], the concentration for half-maximal inhibition (IC50) in assay [1] is less than 100 nM; in assay [2], more than 10 µM; in assay [3], less than 0.1 µM; in assay [4] it was more than 10 µM.

As to `CN(CCN1CCOCC1)c1cnc2ccc(-c3ccc4oc(N)nc4c3)cc2n1` [Compound 166], the IC50 in assay [1] is less than 1000 nM; in assay [2] it was less than 10 µM; in assay [3] it was less than 10 µM; in assay [4], more than 10 µM.

In the case of `CN1CCCN(c2cnc3ccc(-c4ccc5oc(N)nc5c4)cc3n2)CC1` [Compound 136], the 50% inhibitory concentration (IC50) in assay [1] was less than 1000 nM; in assay [2] it was less than 1 µM; in assay [3], less than 10 µM; in assay [4], more than 10 µM.

Regarding `Nc1nc2cc(-c3ccc4ncc(C(=O)N5CCOCC5)n4c3)cc(F)c2o1` [Compound 360], the IC50 in assay [1] is less than 100 nM; in assay [2], less than 1 µM; in assay [3], less than 0.1 µM; in assay [4], less than 10 µM.

Consider `Cc1cn(C2CCN(c3cnc4ccc(-c5ccc6oc(N)nc6c5)cc4n3)CC2)cn1` [Compound 338], for which the IC50 was less than 100 nM in assay [1], less than 10 µM in assay [2], less than 10 µM in assay [3] and less than 10 µM in assay [4].

Turning to `Cc1cc(-c2ccc3nc(N)oc3c2)cn2c(CN3CCN(C)CC3)nnc12` [Compound 549], the half-inhibitory concentration (IC50) was more than 10000 nM in assay [1], more than 10 µM in assay [2], more than 10 µM in assay [3] and more than 10 µM in assay [4].

`C[C@@H]1COCCN1C(=O)c1cnc2ccc(-c3ccc4oc(N)nc4c3)cn12` [Compound 495]: the concentration for half-maximal inhibition (IC50) in assay [1] is less than 100 nM; in assay [2], less than 10 µM; in assay [3], less than 1 µM; in assay [4] it was more than 10 µM.

As to `Nc1nc2cc(-c3ccc4ncc(C(=O)NCCOCC(=O)O)n4c3)ccc2o1` [Compound 551], the IC50 was less than 100 nM in assay [1], less than 1 µM in assay [2], less than 0.1 µM in assay [3] and less than 10 µM in assay [4].

On to `Nc1nc2cc(-c3ccc4ncc(N5CCOCC5)n4n3)ccc2o1` [Compound 57], for which the IC50 in assay [1] is less than 1000 nM; in assay [2], less than 1 µM; in assay [3], less than 10 µM; in assay [4], more than 10 µM.
